Experiments:
Human Bcl-2 protein = biological target: T1, Human Bcl-2 protein (Homo sapiens, UniProt P10415); assay: Evaluation of binding of compound to Bcl-2 by surface plasmon resonance (SPR)-2, Example 13; settings: for equilibrium dissociation constant KD compared with B2Q045-01 (KD=1.20 μM) or B2Q048-01 (KD=0.480 μM): Biacore T200, 15° C.; for Kd: Biacore T200, biotinylated Bcl-2 immobilized on Sensor Chip SA, 15° C., read-out: Equilibrium dissociation constant KD
T1 construct: purchased Novus Biologicals
T1 sequence (P10415 whole entry): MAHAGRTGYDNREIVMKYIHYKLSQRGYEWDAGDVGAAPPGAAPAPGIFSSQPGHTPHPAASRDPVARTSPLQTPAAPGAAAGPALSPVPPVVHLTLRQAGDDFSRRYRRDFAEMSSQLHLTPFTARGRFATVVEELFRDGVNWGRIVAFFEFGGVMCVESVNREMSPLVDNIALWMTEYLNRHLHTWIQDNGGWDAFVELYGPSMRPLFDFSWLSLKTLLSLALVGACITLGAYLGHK
Method: A surface plasmon resonance method was used in order to analyze the binding affinity of the compounds synthesized in Example 12 for Bcl-2, which are shown in Table 13-1. The apparatus used was Biacore T200 (GE Healthcare Japan Corp.), and the running buffer used was HBS (10 mM HEPES-NaOH and 150 mM NaCl, pH 7.4) supplemented with 1 mM DTT, 3 mM EDTA, 0.01% Tween 20 and 4% DMSO. Human Bcl-2 protein (Novus Biologicals) was biotinylated using EZ-Link NHS-PEG4-Biotin (Thermo Fisher scientific Inc.) and immobilized on the surface of Sensor Chip SA (Cytiva). Then, compound solutions having a plurality of concentrations and the running buffer (blank) were added to the Bcl-2-immobilized surface to obtain the binding response of the compounds. Measurement was performed at 15° C.
The obtained sensorgrams were treated with Biacore T200 Evaluation Software, and the equilibrium dissociation constant KD of each compound for Bcl-2 was determined as shown in the following Table 13-2.

[1] = biological target: T2, Bcl-2 protein (Recombinant Human Bcl-2 Protein) (Homo sapiens, UniProt P10415); assay: AS-MS evaluation of binding of the mixture libraries of Examples 8 and 9 to Bcl-2, ASMS ratio (%), Example 11; settings: for AS-MS(%) N1 / AS-MS(%) N2 / AS-MS(%) N3 / AS-MS(%) N4: ASMS ratio, mixtures obtained from Example 9, 10 uM Bcl-2 protein; for AS-MS(%) N1: replicate N1; for AS-MS(%) N2: replicate N2; for AS-MS(%) N3: replicate N3 (additional day); for AS-MS(%) N4: replicate N4 (additional day); for binding to Bcl-2 detected by AS-MS: positive controls added to the mixtures of Examples 8 and 9, final compound concentration 100 nM
T2 construct: purchased Novus Biologicals NBP2-34889
T2 sequence (P10415 whole entry): as above
Method: DMSO solutions (prepared into approximately 5 mM based on calculation from the average molecular weight of each mixture) of the mixtures of each Example shown in Table 11-1-1 were respectively dispensed to 8 wells of MICROPLATE, 96-WELL, PP, V-BOTTOM (Greiner Bio-One International GmbH, 651201). 400 nL each from the 8 wells of the mixtures obtained from Example 8 was dispensed into 3 designated wells while 200 nL each from the 8 wells of the mixtures obtained from Example 9 was dispensed into 3 designated wells, using LABCYTE ECHO® 555 acoustic dispensing system (Beckman Coulter, Inc.). 200 nL each of two types of 10 μM positive controls (B2Q045-01 and B2Q048-01) was dispensed to the mixtures obtained from Example 8. Likewise, 100 nL each of two types of 20 μM positive controls and 400 nL of a DMSO solution by backfill was dispensed to the mixtures obtained from Example 9. Further, Bcl-2 protein (Novus Biologicals, NBP2-34889, Recombinant Human Bcl-2 Protein, Lot E60145051) (19.2 μL) prepared at 5 µM (final protein concentration) for the mixtures obtained from Example 8 and 10 µM (final protein concentration) for the mixtures obtained from Example 9, in advance using a Tris-HCl buffer (25 mM Tris-HCl, pH 7.4, 150 mM NaCl, 0.025% Tween-20, and 1 mM DTT) was added to the well containing the dispensed 1000 compounds or 500 compounds (final compound concentration: 100 nM), and the plate was incubated at 23° C. for 1 hour in the dark. Subsequently, 200 μL of an assay buffer (25 mM Tris-HCl, pH 7.4, 150 mM NaCl, 0.025% Tween-20, and 1 mM DTT) was centrifuged three times at 2000×G at 4° C. for 2 minutes using 96-well MacroSpin column, P-2 Material (Harvard Bioscience, Inc., 74-5655) that had been allowed to swell to condition the 96-well MacroSpin column. Subsequently, 20 μL of the sample thus incubated was added to the 96-well MacroSpin column, P-2 Material after the completion of conditioning, and SEC treatment was performed by centrifugation at 2000×G for 2 minutes. 32 μL of a 1:1 mixed solution of acetonitrile and methanol (LC/MS grade, FUJIFILM Wako Pure Chemical Corp.) was added to a flow-through liquid from SEC, and the mixture was centrifuged at 1800×G at 4° C. for 5 minutes. The supernatant was used as analysis sample ASMS (A). By a similar operation, a sample prepared at 500 compounds/well or 1000 compounds/well and supplemented with only a Tris-HCl buffer containing no Bcl-2 protein was incubated under the same conditions as above, and the same organic solvent as above was added thereto without 96-well MacroSpin column treatment. A supernatant obtained by a centrifugation operation was used as STD (B). Next, by a similar operation, a sample prepared at 1000 compounds/well or 500 compounds/well and supplemented with only a Tris-HCl buffer containing no Bcl-2 protein was incubated under the same conditions as above and treated with 96-well MacroSpin column in the same manner as above, and the same organic solvent as above was added thereto. A supernatant obtained by a centrifugation operation was used as BK (C). These samples were measured by reverse-phase LC/MS.
Then, the samples A, B and C were analyzed for the 1000 compounds or 500 compounds using TraceFinder 5.1 (Thermo Fisher Scientific Inc.) and CHANCE Software (in-house), and an ASMS ratio (%) was calculated according to the following expression.
The mixtures obtained from Example 8 were tested at the number of data of 2 (N1 and N2) in order to ensure reproducibility. The mixtures obtained from Example 9 were tested at the total number of data 4 (N1,N2, N3, and N4) involving the number of data of 2/day (N1 and N2) and data obtained on additional days.

[2] = biological target: T2, Bcl-2 protein (Recombinant Human Bcl-2 Protein); assay: AS-MS evaluation of binding of the Example 4 mixture library (1200 compounds/well) to Bcl-2, ASMS ratio (%)
How it was run: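 A pooled 1200-compound mixture (20 nM each final) was incubated with 20 μM recombinant human Bcl-2 in pH 7.4 Tris-HCl buffer with NaCl, Tween-20 and DTT for 1 h at 23° C. in the dark. Bound ligands were separated by spin-column SEC and measured by reverse-phase LC/MS; ASMS ratio (%) was calculated against protein-free unfiltered standard and protein-free SEC blank.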

[3] = AS-MS, Example 4 mixture library, Bcl-2, replicate n = 1
[4] = AS-MS, Example 4 mixture library, Bcl-2, replicate n = 2
[5] = replicate n = 2, mixture library, value belongs to the MS peak assigned to the compound

Compound | Kd (Human Bcl-2 protein) [nM] | AS-MS(%) N1 [1] [%] | AS-MS(%) N2 [1] [%] | AS-MS(%) N3 [1] [%] | AS-MS(%) N4 [1] [%] | ASMS ratio (%) n = 1 [2, 3] [%] | ASMS ratio (%) n = 2 [2, 4] [%] | also measured
CCOc1cc(C(C)C(=O)Nc2ccccc2)cc(N2CCN(c3ccc(C(=O)NS(=O)(=O)c4ccc(N[C@H](CCN5CCOCC5)CSc5ccccc5)c([N+](=O)[O-])c4)cc3)CC2)c1 (some centres unmarked) [2-2-d1E04-2-0417] | 846 | 43.8 | 48.8 | 53.8 | 65.5 | – | – | equilibrium dissociation constant KD compared with B2Q045-01 (KD=1.20 μM) or B2Q048-01 (KD=0.480 μM) (Human Bcl-2 protein): smaller equilibrium dissociation constant KD
CC(C(=O)Nc1ccc(F)cc1)c1cc(O)cc(N2CCN(c3ccc(C(=O)NS(=O)(=O)c4ccc(N[C@H](CCN5CCOCC5)CSc5ccccc5)c([N+](=O)[O-])c4)cc3)CC2)c1 (some centres unmarked) [2-2-d1E04-1-0454] | 788 | 72.6 | 87.8 | 78.5 | 74.6 | – | – | equilibrium dissociation constant KD compared with B2Q045-01 (KD=1.20 μM) or B2Q048-01 (KD=0.480 μM) (Human Bcl-2 protein): smaller equilibrium dissociation constant KD
CC(C(=O)Nc1ccc(C(F)(F)F)cc1)c1cc(O)cc(N2CCN(c3ccc(C(=O)NS(=O)(=O)c4ccc(N[C@H](CCN5CCOCC5)CSc5ccccc5)c([N+](=O)[O-])c4)cc3)CC2)c1 (some centres unmarked) [2-2-d1E04-1-0498] | 2510 | 45.5 | 61.4 | 52.7 | 51.0 | – | – | –
CCOc1cc(C(C)C(=O)Nc2nc3ccccc3s2)cc(N2CCN(c3ccc(C(=O)NS(=O)(=O)c4ccc(N[C@H](CCN5CCOCC5)CSc5ccccc5)c([N+](=O)[O-])c4)cc3)CC2)c1 (some centres unmarked) [2-2-d1E04-2-0495] | 706 | 52.7 | 137.5 | 56.0 | 50.3 | – | – | equilibrium dissociation constant KD compared with B2Q045-01 (KD=1.20 μM) or B2Q048-01 (KD=0.480 μM) (Human Bcl-2 protein): smaller equilibrium dissociation constant KD
CCOc1cncc(-c2ccccc2CN2CCN(c3ccc(C(=O)NS(=O)(=O)c4ccc(NCCSc5ccccc5)c([N+](=O)[O-])c4)cc3)CC2)c1 [Compound B2Q046-01, 4-[4-[[2-(5-ethoxypyridin-3-yl)phenyl]methyl]piperazin-1-yl]-N-[3-nitro-4-(2-phenylsulfanylethylamino)phenyl]sulfonylbenzamide] | – | – | – | – | – | – | – | binding to Bcl-2 detected by AS-MS [1]: binding to Bcl-2 was detected
CCOc1cccc(-c2ccccc2CN2CCN(c3ccc(C(=O)NS(=O)(=O)c4ccc(NCCSc5ccccc5)c([N+](=O)[O-])c4)cc3)CC2)c1 [Compound B2Q045-01, 4-[4-[[2-(3-ethoxyphenyl)phenyl]methyl]piperazin-1-yl]-N-[3-nitro-4-(2-phenylsulfanylethylamino)phenyl]sulfonylbenzamide] | – | – | – | – | – | – | – | binding to Bcl-2 detected by AS-MS [1]: binding to Bcl-2 was detected
CCOc1cccc(-c2cc(CN3CCN(c4ccc(C(=O)NS(=O)(=O)C(C)(C)C)nn4)CC3)cc(OC(F)(F)F)c2)c1 [Compound B2L089-01, N-tert-Butylsulfonyl-6-[4-[[3-(3-ethoxyphenyl)-5-(trifluoromethoxy)phenyl]methyl]piperazin-1-yl]pyridazine-3-carboxamide] | – | – | – | – | – | 0.0 | 0.0 | –
CCOc1cccc(-c2ccc(CN3CCN(c4ccc(C(=O)NS(=O)(=O)C(C)(C)C)cc4)CC3)c(CC)c2)c1 [Compound B2L049-01, N-tert-Butylsulfonyl-4-[4-[[4-(3-ethoxyphenyl)-2-ethylphenyl]methyl]piperazin-1-yl]benzamide] | – | – | – | – | – | – | – | ASMS ratio (%) n = 2 [2, 5]: 0.0%
CCCNC(=O)c1ccc(N2CCN(C(=O)c3cncc(C#Cc4cncc(OCC)c4)c3)CC2)nn1 [Compound B1M010-01] | – | – | – | – | – | – | – | ASMS ratio (%) n = 1 ([2]; AS-MS, mixture of 1200 compounds/well, Bcl-2 protein, replicate n = 1): 0.0%; ASMS ratio (%) n = 2 ([2]; AS-MS, mixture of 1200 compounds/well, Bcl-2 protein, replicate n = 2): 0.0%
CCOc1cncc(-c2cnn(-c3cc(C(=O)N4CCN(c5ccc(C(=O)NS(=O)(=O)C(C)(C)C)nn5)CC4)cc(C(F)(F)F)c3)c2)c1 [Compound B2L022-01, N-tert-Butylsulfonyl-6-[4-[3-[4-(5-ethoxypyridin-3-yl)pyrazol-1-yl]-5-(trifluoromethyl)benzoyl]piperazin-1-yl]pyridazine-3-carboxamide] | – | – | – | – | – | – | – | ASMS ratio (%) n = 1 ([2]; replicate n = 1, mixture library, value belongs to the MS peak assigned to the compound): 0.0%; ASMS ratio (%) n = 2 [2, 5]: 0.0%
CCOc1cccc(-c2ccc(CN3CCN(c4ccc(C(=O)NS(=O)(=O)c5ccc(NCCSc6ccccc6)c(C(F)(F)F)c5)cc4)CC3)c(OC)c2)c1 [Compound B2R053-01, 4-[4-[[4-(3-Ethoxyphenyl)-2-methoxyphenyl]methyl]piperazin-1-yl]-N-[4-(2-phenylsulfanylethylamino)-3-(trifluoromethyl)phenyl]sulfonylbenzamide] | – | – | – | – | – | −15.0 | 0.0 | –
CCOc1cccc(-c2csc(CN3CCN(c4ccc(C(=O)NS(=O)(=O)CCC(F)(F)F)cc4)CC3)c2)c1 [Compound B2N067-01, 4-[4-[[4-(3-Ethoxyphenyl)thiophen-2-yl]methyl]piperazin-1-yl]-N-(3,3,3-trifluoropropylsulfonyl)benzamide] | – | – | – | – | – | 0.0 | 0.0 | –
CCOc1cncc(-c2ccccc2CN2CCN(c3ccc(C(=O)NS(=O)(=O)c4ccc(NCCSc5ccccc5)c(C(F)(F)F)c4)cc3)CC2)c1 [Compound B2R046-01, 4-[4-[[2-(5-ethoxypyridin-3-yl)phenyl]methyl]piperazin-1-yl]-N-[4-(2-phenylsulfanylethylamino)-3-(trifluoromethyl)phenyl]sulfonylbenzamide] | – | – | – | – | – | −0.2 | 0.0 | –
